This assay relates to A673 NR0B1-luciferase reporter, viability-normalised luminescence. The assay is described as follows: suppressors of NR0B1-promoter luciferase reporter, dose response, EWS/Fli inhibitor project, luciferase luminescence, A673 cells, cherry-pick (AID 686920). Background: Reporter assays use an easily measured gene product as a stand-in for the process of interest.

Some results are limits rather than exact numbers.

As to `CC1(C)N=C(N)N=C(N)N1c1ccc(OCCCOc2ccccc2)c(Cl)c1`, the AC35 was 2.61 µM. For `C[C@H]1CCCCO[C@H](CN(C)Cc2ccc(C(F)(F)F)cc2)[C@@H](C)CN([C@@H](C)CO)C(=O)c2cc(NC(=O)Nc3ccccc3)ccc2O1` the value was 19.4 µM. With `CC(=O)N1CCCC(c2cc(C(=O)Nc3ccccc3)no2)C1` (stereo not drawn), the AC35 is 2.06 µM. As to `COc1ccc(/C=C2\SC(=S)N(CCCC(=O)NNC(=O)c3ccccc3O)C2=O)cc1`, the AC35 is 9.15 µM. In the case of `O=C1c2ccc3c4c(ccc(c24)C(=O)N1c1cccc(O)c1)C(=O)N(c1cccc(O)c1)C3=O` it was 5.35 µM; in that of `O=C(Nc1ccccc1F)N1CCCCN2[C@H](CO)[C@H](c3ccc(/C=C/c4ccccc4)cc3)[C@H]2C1`, 14 µM; in that of `C[C@@H]1CN([C@H](C)CO)C(=O)c2cc(NC(=O)c3ccccc3)ccc2O[C@@H](C)CCCCO[C@H]1CN(C)C(=O)Nc1cccc2ccccc12`, 2.07 µM.

For `COc1cc(-c2cnc3c(NC=O)cc(-c4cccc(NC(C)=O)c4)cn23)cc(OC)c1OC`, the AC35 was 0.298 µM. With `COc1ccc(/C=C2/SC(=S)N(CCCC(=O)Nc3ccccc3C(=O)O)C2=O)cc1`, the AC35 is 5.83 µM.

`O=C(C[C@H]1C[C@H]2c3cc(NS(=O)(=O)c4ccc(F)cc4)ccc3O[C@H]2[C@H](CO)O1)NCc1ccc(Oc2ccccc2)cc1`: the AC35 is 6.22 µM. For `CO[C@H]1CN(C)C(=O)c2ccc(NC(=O)c3ccc(-c4ccccc4)cc3)cc2OC[C@H](C)NC[C@H]1C`, the AC35 was 15 µM.

On to `CN(C)c1ccc2c(c1)[C@@H]1C[C@@H](CC(=O)NCc3ccc(Oc4ccccc4)cc3)O[C@H](CO)[C@@H]1O2`, for which the AC35 was 5.8 µM. Take `CCN1/C(=C/C(C)=C/c2sc3ccccc3[n+]2CC)Sc2ccccc21`: the AC35 was 1.56 µM.

Consider `O=C1CCC2S/C(=C/Nc3ccc(C(F)(F)F)cc3)C(=O)N12` (stereo not drawn), for which the AC35 is 0.385 µM. As to `CC(=O)OC1CC2(O)C3CCC4CC(O)CCC4(C)C3CCC2(C)C1C1=CC(=O)OC1` (stereo not drawn), the AC35 was 0.231 µM. In the case of `C[C@H]1CN([C@@H](C)CO)C(=O)Cc2cc(NC(=O)CCCCCC(=O)Nc3ccccc3N)ccc2O[C@H]1CN(C)Cc1ccc(Oc2ccccc2)cc1` it was 5.63 µM; in that of `CN1c2ccc(-c3ccc(C#N)cc3)cc2[C@H]2[C@H](CCN2S(=O)(=O)c2cccc(F)c2)[C@H]1CO`, 1.74 µM; in that of `Cc1cc(-c2nc3ccccc3s2)ccc1N`, 7.98 µM.

With `COc1ccc(/C=C2\SC(=O)N(CCCC(=O)Nc3cc(Cl)ccc3C(=O)O)C2=O)cc1`, the AC35 is 0.169 µM.

Turning to `Nc1ccc2c(c1)OC1(CCCC1)O2`, the AC35 was 6.63 µM. As for `O=S(=O)(c1ccc(F)cc1)N1C[C@H]2[C@@H](c3ccccc31)[C@H](CO)N2Cc1ccccc1Cl`, the AC35 is 33.7 µM. In the case of `COc1cc(OC)cc(-c2cc3nc(C)c(CCC(=O)NCc4ccccc4)c(C)n3n2)c1` it was 3.44 µM; in that of `Nc1ccc(-c2cc3ccccc3oc2=O)cc1`, 0.208 µM; in that of `CCc1cnc(N2[C@H](C#N)[C@H](c3ccc(C#Cc4ccccc4F)cc3)[C@H]2CO)s1`, 9.23 µM. In the case of `OCCN1CCN(C(=S)c2ccc(-c3ccccc3)cc2)CC1`, the AC35 is 1.94 µM. Regarding `CCOC(=O)Cc1csc(NC(=S)NC(=O)c2ccc(C)cc2)n1`, the AC35 is 0.265 µM. On to `Cn1ccc2cc(-c3ccc4ncnc(NCc5cccs5)c4c3)ccc21`, for which the AC35 was 4.12 µM. Regarding `O=C(O)c1ccc(N/N=C/c2ccc3c(c2)OCO3)cc1`, the AC35 is 0.644 µM. For the compound `O=C(CCCN1C(=O)/C(=C/c2ccccc2Cl)SC1=S)NNC(=O)c1ccc(Cl)cc1`, the AC35 was 8.68 µM.

In the case of `BrC(=C\c1ccccc1)/C=N/n1cnnc1`, the AC35 is 7.17 µM. Regarding `CC1OC(OC2CC(O)C3(CO)C4C(O)CC5(C)C(C6=CC(=O)OC6)CCC5(O)C4CCC3(O)C2)C(O)C(O)C1O` (stereo not drawn), the AC35 was 0.0738 µM. As to `C(=N\Nc1nc2ccccc2[nH]1)/c1ccccn1`, the AC35 is 5.58 µM. Turning to `CC(C)c1oc(=O)cc2c1[C@@H](O)[C@H]1OC(=O)[C@@]3(C)CC[C@@H](O)[C@@]2(C)C13` (stereo partly drawn), the AC35 was 4.21 µM. For `O=C1Nc2ccccc2C1=Nc1ccccc1-c1ccccc1` the value was 11.4 µM. On to `O=C1C(=O)N(CCS(=O)(=O)c2ccccc2)c2ccc(Cl)cc21`, for which the AC35 was 12.2 µM. For the compound `C[C@H]1O[C@@H](O[C@H]2[C@@H](O)C[C@H](O[C@H]3[C@@H](O)C[C@H](O[C@H]4CC[C@@]5(C)[C@H](CC[C@@H]6[C@@H]5C[C@@H](O)[C@]5(C)[C@@H](C7=CC(=O)OC7)CC[C@]65O)C4)O[C@@H]3C)O[C@@H]2C)C[C@H](O)[C@@H]1O`, the AC35 was 0.0886 µM.

Take `COc1ccc(-c2cnc3c(NC=O)cc(-c4ccccc4OC)cn23)cc1OC`: the AC35 is 0.065 µM. Consider `C=C(C(=O)c1ccccc1)C(C)C(=C)C(=O)c1ccccc1`, for which the AC35 is 5.4 µM. In the case of `C[C@@H]1O[C@@H](O[C@@H]2C=C3CCC4C(CC[C@]5(C)[C@@H](c6ccc(=O)oc6)CC[C@]45O)[C@@]3(C)CC2)[C@H](O)[C@H](O)[C@H]1O` (stereo partly drawn), the AC35 was below 0.09 µM. Consider `CCCNC(=O)N1[C@H](C#N)[C@H](c2ccc(C#Cc3ccc(F)cc3)cc2)[C@H]1CO`, for which the AC35 is 10.1 µM.

`COc1ccc(CNc2ncc(-c3ccc(F)cc3)n2C)c2ccccc12`: the AC35 was 6.93 µM. For the compound `C[C@]12CC[C@H]3[C@@H](CC[C@]4(O)C[C@@H](O)CC[C@]34C=O)[C@@]1(O)CC[C@@H]2C1=CC(=O)OC1`, the AC35 is 0.626 µM. Consider `CN(C)c1ccc(C=c2c3ccccc3n3c2c2c([n+]3C)CCCC2)cc1`, for which the AC35 is 1.9 µM. Turning to `O=C(C[C@@H]1C[C@H]2c3cc(NS(=O)(=O)c4ccc(F)cc4)ccc3O[C@H]2[C@H](CO)O1)NCc1ccc(-c2ccccc2)cc1`, the AC35 was 2.03 µM. Turning to `O=c1[nH]c(=O)n([C@H]2C[C@H](O)[C@@H](CO)O2)cc1F`, the AC35 was 2.63 µM.

Take `COC(=O)C[C@@H]1CC[C@@H]2[C@H](COc3ccc(NC(=O)c4ccc(C(F)(F)F)cc4)cc3C(=O)N2C)O1`: the AC35 is 12.1 µM. In the case of `C/C(=C\c1ccccc1)C(=O)N1CCC=CC1=O` it was 10.3 µM; in that of `COc1cc(/C=C/C(=O)/C=C(O)/C=C/c2ccc(O)c(OC)c2)ccc1O`, 5.92 µM; in that of `O=C(C[C@@H]1CC[C@@H]2[C@H](COC[C@@H](O)CN2S(=O)(=O)c2ccc(F)cc2)O1)NCc1ccc(Cl)c(Cl)c1`, 61.8 µM. As for `C/C(=N\NC(=O)c1n[nH]c2c1CCC2)c1cccs1`, the AC35 is 1.78 µM. As to `C[C@@H]1CN([C@@H](C)CO)C(=O)Cc2cc(NC(=O)Nc3ccc(C(F)(F)F)cc3)ccc2O[C@@H]1CN(C)Cc1ccc(C(=O)Nc2ccccc2N)cc1`, the AC35 is 7.91 µM.

As to `CC(=O)c1ccc(N=Nc2ccc(C)cc2)cc1`, the AC35 is 8.92 µM.

As for `O=C1/C(=C\c2ccccc2)CN(C(=O)CCN2CCCCC2)C/C1=C/c1ccccc1`, the AC35 was 2.54 µM. Consider `CCc1ccc(S(=O)(=O)c2ccc(-n3nc(C)cc3N)cc2)cc1`, for which the AC35 is 31.4 µM.

For the compound `COc1ccc(-c2ccc3c(c2)[C@H]2[C@H](CCN2S(=O)(=O)c2ccc(OC)cc2)[C@@H](CO)N3C)cc1`, the AC35 is 4.45 µM.

As for `CC(=O)c1ccc(NC(=O)c2noc3c2CCC3)cc1`, the AC35 was 3.06 µM.

`O=C(O)c1ccc(N/N=C/c2c[nH]c3ccccc23)cc1`: the AC35 was 8.82 µM. Regarding `CN(C[C@H]1N[C@@H](CO)[C@@H]1c1ccc(C2=CCCC2)cc1)C(=O)c1cccc(F)c1`, the AC35 is 3.48 µM. In the case of `COc1ccc2cc(C(N)=O)/c(=N\NC(=O)c3ccccc3)oc2c1`, the AC35 was 5.91 µM. For `Cc1ccc(C(C)C)c(OCc2ccc(C(=O)N/N=C/c3ccc(O)cc3O)cc2)c1` the value was 1.46 µM; for `COc1ccc(S(=O)(=O)N2CCCc3nc(-c4ccc(F)cc4)ccc32)cc1`, 4.87 µM. In the case of `COc1ccc(/C=C/C(=O)c2ccc(C(=O)/C=C/c3ccc(OC)c(OC)c3)cc2)cc1OC`, the AC35 is 6.78 µM. As to `Cc1ccccc1NC(=O)C(=Cc1ccc(C(=O)O)cc1)C(=O)Nc1ccccc1C`, the AC35 was 5.63 µM. In the case of `COC(=O)C1=C(C)N(Cc2ccccc2C(F)(F)F)C(=NCc2ccc(OC)cc2)NC1c1ccc(C(F)(F)F)cc1` (stereo not drawn), the AC35 was 29.9 µM. Turning to `C[C@@H]1CCCCO[C@H](CN(C)Cc2ccc(C(=O)Nc3ccccc3N)cc2)[C@@H](C)CN([C@H](C)CO)C(=O)c2cc(NS(=O)(=O)c3ccc(F)cc3)ccc2O1`, the AC35 was 5.53 µM. In the case of `Cc1sc2nc(CN3CCC(C)CC3)nc(Cl)c2c1C` it was 63 µM. For `COc1cc(-c2coc3c(C(=O)NCc4ccc(C(F)(F)F)cc4)cccc23)ccc1O` the value was 2.21 µM; for `O=C(NC1CCCC1)C(c1ccccc1)n1c(CSCCOc2ccccc2)nc2ccccc21` (stereo not drawn), 2.19 µM. For `COc1cc2c(cc1OC)C(C)N(C(=O)c1cc(Cl)nc(Cl)c1)CC2` (stereo not drawn), the AC35 was 6.06 µM. As for `COC1C(O)C(C)OC(OC2C(Oc3cccc4c(O)c5c(=O)oc6ccc(C)c7c(=O)oc(c34)c5c67)OC(C)C(O)C2O)C1O` (stereo not drawn), the AC35 was 4.49 µM. Regarding `Cc1c(CCOC(=O)CC23CC4CC(CC(C)(C4)C2)C3)sc[n+]1CC(=O)c1ccccc1`, the AC35 was 16.9 µM.

On to `Cc1ccccc1S(=O)(=O)N1CC[C@@H]2[C@@H](CO)Nc3ccc(-c4ccc(C#N)cc4)cc3[C@@H]21`, for which the AC35 is 5.42 µM. Consider `Nc1ccc(Oc2ccccc2-c2ccccc2)cc1`, for which the AC35 was 2.49 µM. As for `Cc1ccc2c(c1)C(=O)N1[C@H]3c4cc(Br)ccc4OC[C@@H]3[C@H](c3ccccc3)[C@]1(C)C(=O)N2`, the AC35 was 13.7 µM. With `CC(C)(C)C(=O)Cn1ncc(Cl)c(Cl)c1=O`, the AC35 was 12.9 µM. In the case of `Cc1ccsc1/C=N/Nc1ccc(C(=O)O)cc1` it was 3.1 µM. As for `CCOc1ccc(-c2noc(CCC(=O)O)n2)cc1`, the AC35 is 1.17 µM. Take `OCC1OC(n2ccc3c2ncn2ncnc32)C(O)C1O` (stereo not drawn): the AC35 is 1.01 µM. Consider `O=c1c2ccccc2oc2cc(C#CC3(O)CCCCC3)ccc12`, for which the AC35 was 4.33 µM.

Take `N#C[C@H]1[C@H](c2ccc(-c3ccccc3F)cc2)[C@@H](CO)N1C(=O)Cc1ccccc1`: the AC35 is 3.31 µM.

Take `O=C(NC(=O)c1ccccc1)Nc1ccccc1`: the AC35 is 12.8 µM. For `O=C1NC(=S)NC(=O)C1=Cc1cccn1-c1ccc(O)cc1`, the AC35 was 19.9 µM.

Take `O=C(O)c1ccc(N/N=C/c2ccc3nccnc3c2)cc1`: the AC35 was 0.993 µM.

For the origin of these results see PubChem BioAssay AID686920 (Broad Institute, 2013).
